Data: PMC8703605, “Enhancement of the Topical Bioavailability and Skin Whitening Effect of Genistein by Using Microemulsions as Drug Delivery Carriers” (Pharmaceuticals, 2021)
≈ marks a conversion by molar mass, not a printed value. Like-named read-outs stand apart in the source and are kept apart here.

Legend:
Salmonella typhimurium = test system: Salmonella typhimurium; parameters: method as in PMID 16198038, PMID 9748575, PMID 2548712; conditions: cited from earlier work
[1] = Solubility of genistein in different vehicles (shake flask, HPLC); type: physicochemical
Experimental: An excess amount of genistein was added to 1 mL each of the vehicles, including receptor buffer and oils, into a 1.5-mL Eppendorf, which was placed on a reciproacting shaker (Shaking Bath, Model B601D, Firstek Co., Ltd., Taipei, Taiwan) and shaken for more than 24 h at room temperature. Then each smaple was centrifuged at 12,000 rpm for 10 min. The drug concentration in supernatant was analyzed by HPLC.
Hitachi HPLC system (Hitachi, Tokyo, Japan), including model L-7100 pump, L-5210 autosampler, model L-4000H detector, and Merck Lichrocart® 100 RP 18 column (250 mm × 4 mm, 5 μm), was used. The mobile phase was composed of methanol and 0.05% phosphoric acid aqueous solution at ratios of 80/20 v/v. The flow rate and detection wavelength were at 1.0 mL/min and 230 nm, respectively. Diazepam solution was used as internal standard. The analytical method was successfully validated for linearity (1.0~100.0 μg/mL), with a determination coefficient (R^2) of 0.9997, precision of coefficient of variation (CV, %) of 4.16%, and accuracy of relative error (RE, %) of 5.71%. The limit of quantitation was 0.5 µg/mL.

[2] = In vivo pharmacokinetic determination; conditions: 20 mg/kg; for Cmax / Tmax / half-life / AUC: male, Sprague-Dawley, rat, in vivo; for AUC: AUC0→ꝏ
Experimental: Rats were divided into two groups, i.e., tranderaml (test) group and oral (control) group, each of three. Rats were anesthetized by 10% chloral hydrate (dosing 0.3 mL/100 g) for intraperitoneal injection. After being anesthetized, hairs on the abdominal skin were removed by an electric shaver. Then, a glass ring with a diameter of 3 cm was fixed on the skin by a quick-drying glue. The applied dose of 20 mg/kg of the tested microemulsion formulation was placed inside the glass ring. […] Blood samples of approximately 0.6 mL were collected from the jugular vein and placed into a 1.5-mL Eppendorf at predetermined time intervals after transdermal administration. Then, the blood sample was centrifuged at 12,000 rpm for 10 min. The plasma samples were stored at −20 °C until analysis. Three to six replicates were conducted for each formulation.
Sample preparation [49, 53, 54]: A 100 μL of plasma samples was incubated with 100 μL of the sulfatase (approximately 200 unit) at 37 ± 0.5 °C for 5 h. Then, 100 µL Nicotine 4 µg/mL was used as internal standard added to the sample, then vortexed for 10 s. A total of 1 mL tert-methyl butyl ether was added for extract solution and vortexed for 10 min and then centrifuged at 10,000 rpm for 10 min. The supernatant of 800 µL was transferred to Eppendorf and evaporated to dryness in the vacuum oven (EYELA CVE-3000, Tokyo, Japan) for 1 h and 40 °C. The residue was reconstituted with 100 µL methanol and analyzed.
The pharmacokinetic analysis includes the following quantities: area under the curve (AUC), maximum plasma concentration (Cmax), the time needed to reach the maximum plasma concentration (Tmax), and the half-life (t1/2) of the drug. All values are presented as the mean ± standard deviation (SD). All data were processed using Phoenix WinNonlin 6.3 (Pharsight Corporation, Sunnyvale, CA, USA) to construct pharmacokinetic profiles. Data were analyzed by using the ANOVA test to evaluate the differences between the groups, and values of p < 0.05 indicated significant differences compared with control.

mice = test system: mice; parameters: method as in PMID 16198038, PMID 9748575, PMID 2548712; conditions: cited from earlier work
[3] = parameters: method as in PMID 20190449; conditions: at 25 °C; cited from earlier work
rats = test system: rats; parameters: method as in PMID 16198038, PMID 9748575, PMID 2548712; conditions: cited from earlier work

O=c1c(-c2ccc(O)cc2)coc2cc(O)cc(O)c12 [genistein, 4′,5,7-trihydroxyisoflavone]
Mutagenicity (Salmonella typhimurium): not mutagenic
Increase of solubility in co-surfactant vs distilled water ([1]; co-surfactant): > 8415 fold
solubility ([1]; in Distilled water, room temperature, read-out: Solubility): ~0.01 mg/mL (≈ 0.037 mM)
solubility ([1]; microemulsion with PEG 400 concentration 0, read-out: Solubility in microemulsion): 11.1 mg/mL (≈ 41 mM)
solubility ([1]; microemulsion with PEG 400 concentration 20%, read-out: Solubility in microemulsion): 32 mg/mL (≈ 118 mM)
Increase of solubility in oil vs distilled water ([1]; oil): more than 13 fold
solubility ([1]; oil or lipid, thermodynamic from solid, in Capryol 90, room temperature, read-out: Solubility): 5.2 ± 0.23 mg/mL (≈ 19.2 mM)
solubility ([1]; oil or lipid, thermodynamic from solid, in Oleic acid, room temperature, read-out: Solubility): 0.13 ± 0.02 mg/mL (≈ 0.481 mM)
solubility ([1]; oil or lipid, thermodynamic from solid, in Peceol, room temperature, read-out: Solubility): 0.36 ± 0.01 mg/mL (≈ 1.33 mM)
solubility ([1]; organic solvent or mixture, thermodynamic from solid, in PEG 400, room temperature, read-out: Solubility): 84.2 ± 5.61 mg/mL (≈ 311 mM)
solubility ([1]; organic solvent or mixture, thermodynamic from solid, in Transcutol HP, room temperature, read-out: Solubility): 94.7 ± 3.92 mg/mL (≈ 350 mM)
Increase of solubility in surfactant vs distilled water ([1]; surfactant): > 1903 fold
solubility ([1]; thermodynamic from solid, in Brij 30, room temperature, read-out: Solubility): 27.7 ± 1.8 mg/mL (≈ 103 mM)
solubility ([1]; thermodynamic from solid, in Cremophor EL, room temperature, read-out: Solubility): 19.4 ± 6.15 mg/mL (≈ 71.9 mM)
solubility ([1]; thermodynamic from solid, in Labrasol, room temperature, read-out: Solubility): 55.5 ± 3.56 mg/mL (≈ 205 mM)
solubility ([1]; thermodynamic from solid, in Tween 80, room temperature, read-out: Solubility): 19 ± 1.37 mg/mL (≈ 70.4 mM)
solubility ([1]; water, thermodynamic from solid, in Distilled water, room temperature, read-out: Solubility): 0.01 mg/mL (≈ 0.037 mM)
Cmax ([2]; po): 3120 ± 1800 ng/mL
Tmax ([2]; po): 3.67 ± 0.43 h
half-life ([2]; po): 6.52 ± 1.24 h
AUC ([2]; po, rats, aqueous suspension, n = 3): 33900 ± 4760 ng·h/mL
Cmax ([2]; topical or ocular): 9120 ± 570 ng/mL
Tmax ([2]; topical or ocular): 7.26 ± 1.11 h
half-life ([2]; topical or ocular): 19.3 ± 5.05 h
AUC ([2]; topical or ocular, rats, transdermal, microemulsion, n = 3): 329000 ± 50000 ng·h/mL
AUC0→ꝏ ([2]; rats, oral, aqueous suspension, n = 3): 33910 ± 4760 ng·h/mL
Mutagenicity and teratogenicity (mice): not mutagenic or teratogenic
solubility in water [3]: 5.3 µM (≈ 1.43 µg/mL)
Mutagenicity and teratogenicity (rats): not mutagenic or teratogenic
